This is an account of results in ChEMBL document CHEMBL3045581, “Preliminary evaluation of rat kidney aldose reductase inhibitory activity of 2-phenylindole derivatives: affiliation to antioxidant activity” (Med Chem Res, 2007).

In test [1] the test system is Liver. The test is described as follows: Antioxidant activity in Rattus norvegicus (rat) liver assessed as superoxide anion scavenging activity at 10^-3 to 10^-4 M. The format is functional, tissue-based.
The target in test [2] is Aldo-keto reductase family 1 member B1 (Rattus norvegicus) (UniProt P07943). Briefly: Inhibition of Rattus norvegicus albino (rat) kidney aldose reductase using D-L-glyceraldehyde as substrate assessed as decrease in NADPH level measured for 5 min by spectrophotometric analysis.
The test system of test [3] is Liver. Briefly: Antioxidant activity in Rattus norvegicus (rat) liver assessed as DPPH free radical scavenging activity at 10^-3 to 10^-4 M. The class given is functional, tissue-based.

Active and inactive are the calls of the source. The calls are words filed in the database; no cut-off is given here.

In the case of `Fc1ccc(-c2cc3ccccc3[nH]2)cc1`, the result in the test with Liver [1] was Active. Moreover, the inhibition result in test [2] is “inactive”. The result in the test on Liver [3] was inactive.
As for `O=Cc1c(-c2ccc(F)cc2)[nH]c2ccccc12`, the result in the test on Liver [1] and with Liver [3] was inactive. Further, the inhibition result in test [2] was “inactive”.
`Clc1ccc(-c2cc3ccccc3[nH]2)cc1Cl`: the outcome in the test on Liver [1] was Active. Besides, the inhibition entry in test [2] is “inactive”. For the same compound, the result with Liver [3] was inactive.
Turning to `O=[N+]([O-])c1cc(-c2cc3ccccc3[nH]2)ccc1Cl`, the outcome in the test with Liver [1] and in the test on Liver [3] was Active. Further, the inhibition in test [2] worked out at 5.29%.
As for `Nc1ccc(-c2[nH]c3ccccc3c2C=O)cc1`, the result in the test on Liver [1] and with Liver [3] was inactive. Moreover, the inhibition entry in test [2] is “inactive”.
With `O=Cc1c(-c2ccc(Cl)cc2)[nH]c2ccccc12`, the outcome in the test with Liver [1] and with Liver [3] was inactive. Further, the inhibition result in test [2] is “inactive”.
Consider `Clc1ccc(-c2cc3ccccc3[nH]2)cc1`, for which, in the test with Liver [1], the result was Active. Besides, in test [2], the inhibition result was “inactive”. Moreover, in the test with Liver [3], the result was inactive.
`O=[N+]([O-])c1cc([N+](=O)[O-])c2[nH]c(-c3ccccc3)cc2c1`: the outcome in the test on Liver [1] and with Liver [3] was Active. Also, in test [2], the inhibition entry is “inactive”.
Take `Nc1ccc(-c2cc3ccccc3[nH]2)cc1`: the outcome in the test with Liver [1] and with Liver [3] was Active. The inhibition in test [2] was 11%.
In the case of `O=Cc1c(-c2ccccc2)[nH]c2ccccc12`, the outcome with Liver [1] and in the test with Liver [3] was inactive. The inhibition in test [2] was 7.64%.
For the compound `O=Cc1c(-c2ccc(Cl)c([N+](=O)[O-])c2)[nH]c2ccccc12`, the outcome in the test with Liver [1] and with Liver [3] was inactive. The inhibition result in test [2] was “inactive”.
For `c1ccc(-c2cc3ccccc3[nH]2)cc1`, the result in the test on Liver [1] and with Liver [3] was inactive. Also, the inhibition result in test [2] was “inactive”.
